Like-named read-outs stand apart in the source and are kept apart here. Each block holds one compound with its values, some of them ahead of it. Square brackets hold non-standard residues; d marks the D form. Peptide text beside a SMILES is read from it. * marks the point of attachment. AMC = Cc1cc(=O)oc2cc(N*)ccc12; pGlu = O=C1CC[C@@H](C(=O)O)N1
Assays:
[1] = biological target: native rat cortical TRH receptors; test: TRH receptor binding: displacement of [3H][3-Me-His2]TRH from rat cortical membranes; settings: for Affinity for [3H]-3MeHis-TRH-labelled receptors in rat brain cortex: result in words; for Affinity for [3H]-3MeHis-TRH-labelled receptors compared with 3MeHis-TRH: rat brain cortex
Description: It cannot be ruled out, however, that [^3H][3-Me-His^2]TRH is binding to a TRH receptor subtype in rat brain cortex that has yet to be identified.
Radioligand binding assays were carried out to examine the ability of these TRH-DE inhibitors to bind to TRH receptors. This was achieved by measuring the ability of the inhibitors to displace [^3H][3-Me-His^2]TRH binding to rat cortical membranes. Membranes were prepared from the cortex of male Wistar rats. The binding of [^3H]-3MeHis-TRH to TRH receptors in cortical membranes was measured as described previously (Kelly et al., 2002) using 10 mM TRH to define non-specific binding. The affinity of TRH-DE inhibitors for TRH receptors was determined in competition experiments and data were analyzed using GraphPad Prism. […] The rank order of potency of D isomer inhibitors was JAK4-D>JAK2-D>JAK1-D.

[2] = biological target: T1, TRH-DE purified from porcine brain (Sus scrofa, UniProt A0A287AP33); test: Inhibition of purified TRH-DE (kinetic/fluorometric assays); type: biochemical; settings: read-out: Ki values for TRH-DE inhibitors
T1 construct: TRH-DE purified from porcine brain; from tissue; host or cells: porcine brain
Source text: The binding capacity offered by in the vicinity of the S2′ binding site of TRH-DE was studied. […] The L-amino acids in these peptides were replaced with D-amino acids. The vast majority of naturally occurring polypeptides are composed of L-amino acids and mammalian proteolytic enzymes are designed to work with this stereochemistry. Thus, replacement of L-amino acids by D-amino acids is used in the art in an endeavor to confer stability to proteolytic degradation as described in U.S. Pat. No. 6,703,366. It is recognized by the art that this type of replacement, however, may lead to loss of peptide specificity and or activity as noted by U.S. Pat. No. 4,587,233, Sato et al. 1987 and Fischer 2003, and thus the effect of the replacement is unpredictable. […] Replacement of L-amino acids by D-amino acids may also be used to scan the relative importance of the stereochemistry of particular functional groups in a peptide structure and also that of local structures within the peptide (Hruby, 2002).
The ability of compounds to be hydrolysed by and to inhibit TRH-DE purified from porcine brain was determined using kinetic assays as previously described (Kelly et al. 1999, 2000a, 2000b, U.S. Pat. application 20030166944). […] [JAK 1, JAK 2, JAK 3, JAK 4 and JAK 5 are described in U.S. Pat. App. No. 20030166944.]
HPLC analysis was used, as previously described (Kelly et al. 2000a, U.S. Pat. App. 20030166944), to assess the ability of each compound listed above to act as a TRH-DE substrate. […] Compounds were then screened for their ability to inhibit TRH-DE purified from porcine brain using fluorometric assays, as previously described (Kelly et al. 2000a, U.S. Pat. App. 20030166944).

Male Wistar rats [3] = test: Wet dog shaking (WDS) behavior; type: in vivo, rat
Male Wistar rats [4] = test: Antagonism of barbiturate-induced sleep time (analeptic effect); type: in vivo, rat; settings: 1 mg/kg i.v.; for Sleep time: 10 min after sodium pentobarbitone 30 mg/kg i.p., mean ± SEM; for Effect on barbiturate-induced sleep time: result in words
Description: The antagonism of barbiturate-induced anesthesia is a well-recognized pharmacological effect of TRH and is used in the art to indicate successful central delivery and activity of TRH analogues. […] Male Wistar rats (150-250 g) were anaesthetized with sodium pentobarbitone (30 mg/kg i.p.). […] Animals were placed on their backs and sleep times recorded. From Table III it can be seen that both […] [table]

Male Wistar rats [5] = test: Rat behaviour total activity score; type: in vivo
Description: These include, increased locomotor activity (21-22), induction of blinking and forepaw licking and body shaking behavior, often referred to as 'wet dog shakes' (WDS) Kelly et al., 2000b). […] Male Wistar rats (150-250 g) were placed in individual perspex boxes and allowed to acclimatize for 20 min. […] Individual behaviors were recorded for 30 sec at 5 min intervals by an observer who was blind to treatment. Behaviors during each observation period were summed to yield a total activity score.

[6] = system: native rat cortical TRH receptors; settings: cited from earlier work; for Affinity compared to TRH for [3H]-3MeHis-TRH-labelled receptors in rat cortical membranes: previous studies (Kelly et al., 2002)
Male Wistar rats [7] = settings: Kelly et al., 2000b; cited from earlier work
[8] = L isomer, JAK compounds dissolved in DMSO, read-out: Ki, inhibition of [3H]-3MeHis-TRH binding, X is L isomer aa
[9] = D isomer, JAK compounds dissolved in DMSO, read-out: Ki, inhibition of [3H]-3MeHis-TRH binding, X is D isomer aa

T1 sequence (A0A287AP33 1-1066): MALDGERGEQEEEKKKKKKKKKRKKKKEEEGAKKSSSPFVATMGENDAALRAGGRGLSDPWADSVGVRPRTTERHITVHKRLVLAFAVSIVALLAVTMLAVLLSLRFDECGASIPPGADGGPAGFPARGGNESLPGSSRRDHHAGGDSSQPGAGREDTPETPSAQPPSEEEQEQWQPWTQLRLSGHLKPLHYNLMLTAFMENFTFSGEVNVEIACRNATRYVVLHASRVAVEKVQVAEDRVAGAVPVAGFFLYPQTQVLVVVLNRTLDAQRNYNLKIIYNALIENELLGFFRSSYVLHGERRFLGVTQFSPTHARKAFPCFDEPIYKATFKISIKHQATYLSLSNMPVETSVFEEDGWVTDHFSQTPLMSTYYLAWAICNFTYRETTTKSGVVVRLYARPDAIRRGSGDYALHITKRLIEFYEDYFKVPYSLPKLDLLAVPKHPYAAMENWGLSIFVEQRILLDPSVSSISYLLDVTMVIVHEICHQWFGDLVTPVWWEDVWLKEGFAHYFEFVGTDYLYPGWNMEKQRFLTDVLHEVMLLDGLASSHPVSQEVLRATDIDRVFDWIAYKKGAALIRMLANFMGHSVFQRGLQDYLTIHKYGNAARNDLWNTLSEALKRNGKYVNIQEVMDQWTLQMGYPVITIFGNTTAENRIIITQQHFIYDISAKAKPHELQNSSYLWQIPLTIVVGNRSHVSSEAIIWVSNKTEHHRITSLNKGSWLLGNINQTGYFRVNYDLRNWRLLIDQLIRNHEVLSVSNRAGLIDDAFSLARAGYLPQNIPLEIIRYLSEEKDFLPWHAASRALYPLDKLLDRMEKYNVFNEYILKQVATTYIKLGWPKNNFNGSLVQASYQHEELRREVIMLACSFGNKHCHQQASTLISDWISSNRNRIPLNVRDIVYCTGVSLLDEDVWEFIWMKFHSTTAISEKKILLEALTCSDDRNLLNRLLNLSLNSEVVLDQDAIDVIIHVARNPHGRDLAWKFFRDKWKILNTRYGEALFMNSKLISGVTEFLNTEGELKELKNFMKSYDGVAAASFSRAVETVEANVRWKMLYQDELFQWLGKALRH

Compound: Cn1cncc1C[C@H](NC(=O)[C@@H]1CCC(=O)N1)C(=O)N1CCC[C@H]1C(N)=O [3-MeHis-TRH, reference compound]
Ki ([1]; in DMSO, read-out: Ki, inhibition of [3H]-3MeHis-TRH binding): 74 nM
Ki ([1]; in saline, read-out: Ki, inhibition of [3H]-3MeHis-TRH binding): 1.9 nM

Compound: Cc1cc(=O)oc2cc(NC(=O)[C@H](Cc3c[nH]c4ccccc34)NC(=O)[C@H](Cc3c[nH]c4ccccc34)NC(=O)[C@H](Cc3ccc(O)cc3)NC(=O)[C@@H]3CCCN3C(=O)[C@H](CC(N)=O)NC(=O)[C@@H]3CCC(=O)N3)ccc12 [JAK 1, Glp-Asn-Pro-LTyr-LTrp-LTrp-AMC] ([pGlu]NPYWW-{AMC})
Ki [2]: 1 nM
Ki [1, 8]: > 100000 nM
Affinity for [3H]-3MeHis-TRH-labelled receptors in rat brain cortex [1]: low affinity

Compound: Cc1cc(=O)oc2cc(NC(=O)[C@@H](Cc3c[nH]c4ccccc34)NC(=O)[C@@H](Cc3c[nH]c4ccccc34)NC(=O)[C@@H](Cc3ccc(O)cc3)NC(=O)[C@@H]3CCCN3C(=O)[C@H](CC(N)=O)NC(=O)[C@@H]3CCC(=O)N3)ccc12 [JAK 1D, Glp-Asn-Pro-DTyr-DTrp-DTrpAMC] ([pGlu]NP[dY][dW][dW]-{AMC})
Ki [2]: 30 nM
Ki [1, 9]: 60 nM

Compound: Cc1cc(=O)oc2cc(NC(=O)[C@H](Cc3c[nH]c4ccccc34)NC(=O)[C@H](Cc3ccc(O)cc3)NC(=O)[C@@H]3CCCN3C(=O)[C@H](CC(N)=O)NC(=O)[C@@H]3CCC(=O)N3)ccc12 [JAK 2, Glp-Asn-Pro-LTyr-LTrp-AMC] ([pGlu]NPYW-{AMC})
Ki [1, 8]: ~40000 nM
Affinity for [3H]-3MeHis-TRH-labelled receptors in rat brain cortex [1]: low affinity

Compound: Cc1cc(=O)oc2cc(NC(=O)[C@@H](Cc3c[nH]c4ccccc34)NC(=O)[C@@H](Cc3ccc(O)cc3)NC(=O)[C@@H]3CCCN3C(=O)[C@H](CC(N)=O)NC(=O)[C@@H]3CCC(=O)N3)ccc12 [JAK 2D, Glp-Asn-Pro-DTyr-DTrpAMC] ([pGlu]NP[dY][dW]-{AMC})
Ki [2]: 100 nM
Ki [1, 9]: 3.7 nM
Affinity for [3H]-3MeHis-TRH-labelled receptors compared with 3MeHis-TRH [1]: greater affinity

Compound: Cc1cc(=O)oc2cc(NC(=O)[C@@H]3CCCN3C(=O)[C@H](CC(N)=O)NC(=O)[C@@H]3CCC(=O)N3)ccc12 [JAK 5, Glp-Asn-Pro-AMC] ([pGlu]-Asn-Pro-{AMC})
Affinity compared to TRH for [3H]-3MeHis-TRH-labelled receptors in rat cortical membranes [6]: relatively low affinity
Ki [2]: 970 nM
Effect on central effects of TRH in vivo (Male Wistar rats [7]): amplify

Compound: NC(=O)C[C@H](NC(=O)[C@@H]1CCC(=O)N1)C(=O)N1CCC[C@H]1C(N)=O [JAK 6, Glp-Asn-ProNH2] ([pGlu]-Asn-Pro-NH2)
Affinity compared to TRH for [3H]-3MeHis-TRH-labelled receptors in rat cortical membranes [6]: relatively low affinity
Ki [2]: 16100 nM

Compound: NC(=O)[C@@H]1CCCN1C(=O)[C@H](Cc1c[nH]cn1)NC(=O)[C@@H]1CCC(=O)N1 [TRH, pyroglutamyl-histidyl-prolineamide, reference compound]
Effect on WDS (Male Wistar rats [3]; TRH i.p.): concentration-dependent increase
Persistence of effects on WDS (Male Wistar rats [3]; TRH i.p.): approximately 20 min
Time of maximum numbers of WDS post administration (Male Wistar rats [3]; TRH i.p.): 5 min
Ki [1, 8]: 22 nM
Sleep time (Male Wistar rats [4]): 54.5 ± 4.3 min
Effect on barbiturate-induced sleep time (Male Wistar rats [4]): significantly (p<0.05, Student's t-test) reduce
Effect on rat activity (Male Wistar rats [5]; TRH 5-50 mg/kg): dose-dependent increase

Compound: [^3H][3-Me-His^2]TRH [reference compound]
Kd ([6]; single population of high affinity sites (Sharif 1989, Kelly et al., 2002), read-out: Kd on rat brain cortical membranes): ~5 nM

Compound: [pGlu]NP[dY][dW]-NH2
Effect on barbiturate-induced sleep time (Male Wistar rats [4]): significantly (p<0.05, Student's t-test) reduce

Further lines, with some results ahead:

Ki [2]: 730 nM
Compound: NC(=O)C[C@H](NC(=O)[C@@H]1CCC(=O)N1)C(=O)N1CCC[C@H]1C(=O)N[C@@H](Cc1ccc(O)cc1)C(=O)N[C@@H](Cc1c[nH]c2ccccc12)C(=O)N[C@@H](Cc1c[nH]c2ccccc12)C(N)=O [JAK 3, Glp-Asn-Pro-LTyr-LTrp-LTrpNH2] ([pGlu]NPYWW-NH2)

Ki [1, 8]: 120 nM
Compound: NC(=O)C[C@H](NC(=O)[C@@H]1CCC(=O)N1)C(=O)N1CCC[C@H]1C(=O)N[C@@H](Cc1ccc(O)cc1)C(=O)N[C@@H](Cc1c[nH]c2ccccc12)C(N)=O [JAK 4, Glp-Asn-Pro-LTyr-LTrp-NH2] ([pGlu]NPYW-NH2)

Ki [2]: 110 nM
Ki [1, 9]: 5.5 nM
Affinity for [3H]-3MeHis-TRH-labelled receptors compared with 3MeHis-TRH [1]: greater affinity
Compound: NC(=O)C[C@H](NC(=O)[C@@H]1CCC(=O)N1)C(=O)N1CCC[C@H]1C(=O)N[C@H](Cc1ccc(O)cc1)C(=O)N[C@H](Cc1c[nH]c2ccccc12)C(N)=O [JAK 4D, Glp-Asn-Pro-D-Tyr-D-TrpNH2] ([pGlu]NP[dY][dW]-NH2)
Effect of pre-treatment on peak WDS response to 10 mg/kg TRH (Male Wistar rats [3]; 1 mg/kg): enhanced
Occurrence of WDS (Male Wistar rats [3]; 1 mg/kg): comparable with the response produced by 5 mg/kg TRH
Sleep time (Male Wistar rats [4]): 54.1 ± 2.4 min
Responses on co-administration with 10 mg/kg TRH (Male Wistar rats [5]; 0.1 mg/kg): equivalent to those achieved by 20 and 50 mg/kg TRH
Effect of pre-treatment on stimulatory effect of 10 mg/kg TRH (Male Wistar rats [5]; 0.1 mg/kg, 15-20 min after TRH): enhanced
Activity response compared with TRH (Male Wistar rats [5]; 1 mg/kg JAK4-D): comparable to that produced by TRH 5 mg/kg
Effect of pre-treatment on responses to 10 mg/kg TRH (Male Wistar rats [5]; 1 mg/kg, entire observation period): enhanced and prolonged
Effect on spontaneous rat activity scores vs vehicle (Male Wistar rats [5]; 0.1-5 mg/kg i.p.): transient increase

Ki [2]: 19600 nM
Ki [1, 9]: 1000 nM
Compound: NC(=O)[C@@H](Cc1c[nH]c2ccccc12)NC(=O)[C@@H](Cc1ccc(O)cc1)NC(=O)[C@@H]1CCCN1C(=O)[C@H](Cc1c[nH]cn1)NC(=O)[C@@H]1CCC(=O)N1 [JAK 7D, Glp-His-Pro-D-Tyr-D-TrpNH2] ([pGlu]HP[dY][dW]-NH2)

Source: patent US7713935B2, “Compounds that modulate TRH actions” (The Provost, Fellows and Scholars of The College of The …, priority 2004, dated 2010)
